This is an account of results in article PMC6801819, “Exogenous Iron Increases Fasciocidal Activity and Hepatocellular Toxicity of the Synthetic Endoperoxides OZ78 and MT04” (International Journal of Molecular Sciences, 2019).

The subject of data set [1] is HepG2 cells. The data set can be described thus: Cellular reactive oxygen species (DCF-DA). The class given is cell-based, human. Here is the method: Stock solutions of the drugs tested were prepared in DMSO 100% (v/v). […] LC-MS measurements confirmed the stability of the compounds (data not shown). Treatments with AS, MT04, or OZ78 (100 or 500 µM) were performed either alone or in combination with 8% (v/v) hemin or FeCl2 solution for 24 h. The final iron concentration used was 122 µM (stock 1.5 mM) based on previous in vitro studies with F. hepatica. Dichlorodihydrofluorescein diacetate (DCF-DA) dissolved in DMSO was used to assess cellular formation of reactive oxygen species (ROS). HepG2 cells were seeded in a black-wall 96 well plate with a clear bottom as described above. Briefly, 30 min before treatment started, DCF-DA was added to the cells at a final concentration of 25 µM. DCF-DA was removed completely before the drugs were added. ROS was measured after 90 min and 24 h of drug exposure using a Tecan M200 Infinite Pro (excitation 485 nm, emission 535 nm).

Data set [2] concerns HepG2 cells. The data set can be described thus: Cellular ATP content (CellTiter-Glo). The data set is classed as cell-based, human. Here is the method: (§1) Stock solutions of the drugs tested were prepared in DMSO 100% (v/v).
(§2) In viability assays, HepG2 cells were treated with 0.1% Triton-X or 0.1% DMSO for positive or negative control, respectively.
To assess cellular ATP content, HepG2 cells were seeded in white-wall 96-well plates with a clear bottom (Nunc). One day after seeding, cells were treated with the respective drugs. […] Luminescence was measured using Tecan M200 Infinite Pro.

For another data set, the system named is adult F. hepatica. In words: In vitro/ex vivo adult worm viability assay. The data set is classed as cell-based, Fasciola hepatica. Particulars: iron or hemin with 1% DMSO, no drug, 48 h or 72 h. How it is done:
The experiments were performed, as described previously. Adult F. hepatica were collected from bovine liver bile ducts obtained from the local slaughterhouse (Basel, Switzerland). After careful washing, a single adult worm was placed per well (6-well plate, Costar, MA, USA) containing 5.4 mL RPMI 1640 (Gibco, N.Y., USA), supplemented with 1% (v/v) antibiotics (50 µg/mL streptomycin and 50 U/mL penicillin), 1% (v/v) drug solution, […] Control worms were incubated in 1% (v/v) DMSO combined with iron or hemin. Experiments were conducted in triplicates and repeated once. Cultures were kept at 37 °C in an atmosphere of 5% CO2. The viabilities of treated and untreated worms were monitored at 0, 24, 48, and 72 h. Worms were examined by eye and/or using a dissecting microscope (20× lenses). The viability of adult flukes was scored using the following scale: 4: normal activity; movements were visible without a microscope, 3: reduced activities, 2: very weak activities detected only using microscopic magnification, and 1: death of worm (no movement observed for two min using a microscope).

Data set [3] has as its system HepG2 cells. The data set can be described thus: Adenylate kinase leakage (membrane integrity test). The class given is cell-based, human. How it is done:
as §1, §2
The assay was used according to the protocol supplied by the manufacturer.

For `[Cl][Fe][Cl]` [Fe^2+, Fe(II)chloride], in the data set with HepG2 cells [1], the “increase in ROS compared to DMSO, factor” value was “did not trigger ROS production”. Further, in the data set on HepG2 cells [2], the “impact on cellular ATP content” value is reported as “no impact on cellular ATP content”. The “viability of adult F. hepatica” value in the data set with adult F. hepatica is reported as “slight reduction in viability”. Moreover, the “cytotoxicity (AK release)” value in the data set with HepG2 cells [3] is on record as “not cytotoxic”.

Regarding hemin [reference compound], in the data set on HepG2 cells [2], the “impact on cellular ATP content” value is “no impact on cellular ATP content”. Further, the “viability of adult F. hepatica” value in the data set with adult F. hepatica is “slight reduction in viability”.
